# Source: PubChem BioAssay AID1963980 (Molecular Pharmacology Branch, DTP, NCI, 2024)
# Tested on: 475296-252-R-J1-PDC spheroid viability
# Test: Anticancer human tumor 475296-252-R-J1-PDC patient-derived rectal carcinoma cell line growth inhibition [PI3K]
# Conditions: spheroids with HUVEC and MSC; for IC50: curve of first compound; for viability, T/C: stronger effect = lower value
# Summary of the method: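 High-throughput combination screen: PI3K inhibitors crossed with targeted small molecules on complex spheroids of tumor cells, HUVEC and MSCs at 37 degrees C, 5% CO2. Top concentration was at or near clinical Cmax (otherwise 10 microM), with half-log decrements.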
# [1] = second compound 0.0316 µM, first compound 0.00316 µM
# [2] = second compound 0.0316 µM, first compound 0.01 µM
# [3] = second compound 0.0316 µM, first compound 0.0316 µM
# [4] = second compound 0.0316 µM, first compound 0.1 µM
# [5] = second compound 0.0316 µM, first compound 0.316 µM
# [6] = second compound 0.0316 µM, first compound 1 µM
# [7] = second compound 0.1 µM, first compound 0.00316 µM
# [8] = second compound 0.1 µM, first compound 0.01 µM
# [9] = second compound 0.1 µM, first compound 0.0316 µM
# [10] = second compound 0.1 µM, first compound 0.1 µM
# [11] = second compound 0.1 µM, first compound 0.316 µM
# [12] = second compound 0.1 µM, first compound 1 µM
# [13] = second compound 0.316 µM, first compound 0.00316 µM
# [14] = second compound 0.316 µM, first compound 0.01 µM
# [15] = second compound 0.316 µM, first compound 0.0316 µM
# [16] = second compound 0.316 µM, first compound 0.1 µM
# [17] = second compound 0.316 µM, first compound 0.316 µM
# [18] = second compound 0.316 µM, first compound 1 µM
# [19] = second compound 1 µM, first compound 0.00316 µM
# [20] = second compound 1 µM, first compound 0.01 µM
# [21] = second compound 1 µM, first compound 0.0316 µM
# [22] = second compound 1 µM, first compound 0.1 µM
# [23] = second compound 1 µM, first compound 0.316 µM
# [24] = second compound 1 µM, first compound 1 µM
# [25] = second compound 3.16 µM, first compound 0.00316 µM
# [26] = second compound 3.16 µM, first compound 0.01 µM
# [27] = second compound 3.16 µM, first compound 0.0316 µM
# [28] = second compound 3.16 µM, first compound 0.1 µM
# [29] = second compound 3.16 µM, first compound 0.316 µM
# [30] = second compound 3.16 µM, first compound 1 µM
# [31] = second compound 10 µM, first compound 0.00316 µM
# [32] = second compound 10 µM, first compound 0.01 µM
# [33] = second compound 10 µM, first compound 0.0316 µM
# [34] = second compound 10 µM, first compound 0.1 µM
# [35] = second compound 10 µM, first compound 0.316 µM
# [36] = second compound 10 µM, first compound 1 µM
# 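Further: spheroids exposed to agents for seven days before readout.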
compound,measurement,setting,value
CCN1CCN(Cc2ccc(Nc3ncc(F)c(-c4cc(F)c5nc(C)n(C(C)C)c5c4)n3)nc2)CC1 + Cc1nc(NC(=O)N2CCCC2C(N)=O)sc1-c1ccnc(C(C)(C)C(F)(F)F)c1,IC50,second compound 0.0316 µM,> 1 µM
same,IC50,second compound 0.1 µM,> 1 µM
same,IC50,second compound 0.316 µM,> 1 µM
same,IC50,second compound 1 µM,> 1 µM
same,IC50,second compound 3.16 µM,> 1 µM
same,IC50,second compound 10 µM,> 1 µM
same,"viability, T/C",[1],95.8%
same,"viability, T/C",[2],93.4%
same,"viability, T/C",[3],107%
same,"viability, T/C",[4],90%
same,"viability, T/C",[5],114%
same,"viability, T/C",[6],104%
same,"viability, T/C",[7],95.8%
same,"viability, T/C",[8],97.8%
same,"viability, T/C",[9],112%
same,"viability, T/C",[10],90.4%
same,"viability, T/C",[11],98.8%
same,"viability, T/C",[12],84.3%
same,"viability, T/C",[13],107%
same,"viability, T/C",[14],105%
same,"viability, T/C",[15],87.6%
same,"viability, T/C",[16],99.4%
same,"viability, T/C",[17],98%
same,"viability, T/C",[18],88.6%
same,"viability, T/C",[19],81.4%
same,"viability, T/C",[20],90.5%
same,"viability, T/C",[21],98.7%
same,"viability, T/C",[22],88.5%
same,"viability, T/C",[23],89.2%
same,"viability, T/C",[24],87.7%
same,"viability, T/C",[25],98.2%
same,"viability, T/C",[26],108%
same,"viability, T/C",[27],82.5%
same,"viability, T/C",[28],95%
same,"viability, T/C",[29],90.7%
same,"viability, T/C",[30],73.1%
same,"viability, T/C",[31],93.3%
same,"viability, T/C",[32],88.3%
same,"viability, T/C",[33],96.7%
same,"viability, T/C",[34],81.1%
same,"viability, T/C",[35],90.4%
same,"viability, T/C",[36],70.4%
CCN1CCN(Cc2ccc(Nc3ncc(F)c(-c4cc(F)c5nc(C)n(C(C)C)c5c4)n3)nc2)CC1 + CC(Nc1ncnc2nc[nH]c12)c1cc2cccc(Cl)c2c(=O)n1-c1ccccc1,IC50,second compound 0.0316 µM,> 1 µM
same,IC50,second compound 0.1 µM,> 1 µM
same,IC50,second compound 0.316 µM,> 1 µM
same,IC50,second compound 1 µM,> 1 µM
same,IC50,second compound 3.16 µM,> 1 µM
same,IC50,second compound 10 µM,> 1 µM
same,"viability, T/C",[1],87%
same,"viability, T/C",[2],101%
same,"viability, T/C",[3],99.6%
same,"viability, T/C",[4],86.1%
same,"viability, T/C",[5],104%
same,"viability, T/C",[6],92%
same,"viability, T/C",[7],87.8%
same,"viability, T/C",[8],90.9%
same,"viability, T/C",[9],103%
same,"viability, T/C",[10],102%
same,"viability, T/C",[11],105%
same,"viability, T/C",[12],89.1%
same,"viability, T/C",[13],95.1%
same,"viability, T/C",[14],102%
same,"viability, T/C",[15],98.3%
same,"viability, T/C",[16],101%
same,"viability, T/C",[17],89.4%
same,"viability, T/C",[18],81.2%
same,"viability, T/C",[19],102%
same,"viability, T/C",[20],92.3%
same,"viability, T/C",[21],93.8%
same,"viability, T/C",[22],98.5%
same,"viability, T/C",[23],94.6%
same,"viability, T/C",[24],75.1%
same,"viability, T/C",[25],87.2%
same,"viability, T/C",[26],99.3%
same,"viability, T/C",[27],85.1%
same,"viability, T/C",[28],102%
same,"viability, T/C",[29],92.1%
same,"viability, T/C",[30],79.5%
same,"viability, T/C",[31],95.5%
same,"viability, T/C",[32],82.4%
same,"viability, T/C",[33],87.4%
same,"viability, T/C",[34],101%
same,"viability, T/C",[35],96.9%
same,"viability, T/C",[36],70.5%
